EP4810498A1, “MEDICATION FOR TREATING SEVERE MALARIA AND SYNTHESIS METHOD THEREFOR” (Institute of Chinese Materia Medica, China Academy of …, priority 2023, dated 2025)
Where two headings read alike, the source gives them in different places. Each block holds one compound with its values, some of them ahead of it.

Legend:
[1] = system: Plasmodium falciparum 3D7; experiment: SYBR Green assay, growth inhibition of Plasmodium falciparum cultured in vitro; type: cell-based
Method: Plasmodium falciparum in the ring stage was synchronized. Smearing was carried out and the infection rate was counted. The synchronized parasitized red blood cells, healthy red blood cells and mediums were matched in a reasonable ratio, resulting in an in vitro culture system of plasmodia (ring bodies, 2 to 4 hours-old) with a hematocrit of 2% and an infection rate of 1%. […] A1-A10 was paved with 25 µl of drugs (with 8 complex wells for each drug) and mixed evenly, and then diluted in multiple proportions (Ax-Hx). Except for A12-H12, 50 µL of a plasmodium culture solution was spread in all the other wells; and A12-H12 was spread with 50 µl of healthy red blood cells (in the medium with a hematocrit of 2%). […] 100 µl of a lysis buffer was added to each of the wells and put into a drawer to avoid light for 1 h.
In this experiment, SYBR Green assay was used to determine the median inhibitory concentration (IC50) value of the drug for treating Plasmodium falciparum 3D7. Nonlinear regression was used to calculate the value by means of software graphpad prism 8.0 (the value was equal to average value plus or minus standard error), and a four-parameter logistic fitting curve was used. Each value in the curve was equal to average value plus or minus standard error in eight biological repetitive experiments.

[2] = system: Plasmodium berghei ANKA strain; experiment: Body weight of cerebral malaria model mice; type: in vivo, C57BL/6J mice; details: AS group (15.6 mg/kg), at the end of the observation; in g (unit assumed)
Excerpt: (§1) Experimental study on the antimalarial activity of Artesunazine (Example Ia-1) in vitro and vivo. I. Protection of Artesunazine on mice infected by Plasmodium berghei ANKA strain. (I) Experimental materials: • 1. Animals: C57BL/6J, weighing 16-18 g, 10 in each group, 50 in total. • 2. Plasmodium strain: Plasmodium berghei ANKA strain, donated by Professor Zhao Ya of Air Force Medical University of the People's Liberation Army of China (The Fourth Military Medical University), was preserved in our laboratory by blood transmission or freezing. • 3. Drugs and preparation methods: Artesunazine and a positive control drug artesunate were dissolved in a mixed solvent of polyethylene glycol 400 (PEG400) and water (PEG400:water=4:1), serving as a preparation for immediate use. (II) Experimental methods • 1. Plasmodium resuscitation and passage: A Plasmodium berghei ANKA strain frozen in liquid nitrogen was taken out and placed in a water bath kettle at 37°C. After melting, it was immediately intraperitoneally inoculated into C57BL/6J mice (0.2 mL/mouse). When the infection rate of the breeding mice reached 15-30%, their eyeballs were removed and blood was collected in an anticoagulant tube. After shaking well, the blood was transmitted to offspring C57BL/6J mice with a 1 mL syringe at an injection dose of 0.2 mL/mouse. • 2. Plasmodium inoculation: C57BL/6J mice were weighed and fed adaptively. When the infection rate of offspring C57BL/6J mice reached 15-30%, the total number of red blood cells and the number of pRBCs were counted after their eyeballs were removed and blood was collected. The blood was injected intraperitoneally into model group C57BL/6J mice at an injection dose of 0.2 mL (including 1×10^7 pRBCs) per mouse, which was the 0th day (D0) of inoculation. • 3. Animal grouping: After inoculation, the experimental mice were randomly divided into 5 groups, including a model (M) group, high, medium and low dose Artesunazine groups (i.e., 40 mg/kg, 20 mg/kg, and 10 mg/kg Artesunazine), and an artesunate group (i.e., 15.6 mg/kg AS, clinically equivalent dose). The dosage of the medium dose Artesunazine group (20mg/kg Artesunazine) is equivalent to that of the artesunate group (15.6 mg/kg). There are 10 mice in each group, a total of 50 mice. • 4. Determination of survival rate From the 0th day of inoculation, the death of mice was observed every day for 28 consecutive days. Survival rate = (Number of surviving mice)/(Number of experimental mice) × 100% [formula] • 5. Determination of recurrence rate After inoculation, the mice were randomly divided into groups and administered via nasal drip for 3 h. […] The mouse recurrence rate was calculated by the ratio of the number of mice with recurrence to the total number of mice. […]

[3] = system: Plasmodium berghei ANKA strain; experiment: Recurrence rate of cerebral malaria model mice (blood smear); type: in vivo, C57BL/6J mice; details: AS group (15.6 mg/kg)
Excerpt: Experimental study on the antimalarial activity of Artesunazine (Example Ia-1) in vitro and vivo. I. Protection of Artesunazine on mice infected by Plasmodium berghei ANKA strain. (I) Experimental materials: • 1. Animals: C57BL/6J, weighing 16-18 g, 10 in each group, 50 in total. • 2. Plasmodium strain: Plasmodium berghei ANKA strain, donated by Professor Zhao Ya of Air Force Medical University of the People's Liberation Army of China (The Fourth Military Medical University), was preserved in our laboratory by blood transmission or freezing. • 3. Drugs and preparation methods: Artesunazine and a positive control drug artesunate were dissolved in a mixed solvent of polyethylene glycol 400 (PEG400) and water (PEG400:water=4:1), serving as a preparation for immediate use. (II) Experimental methods • 1. Plasmodium resuscitation and passage: A Plasmodium berghei ANKA strain frozen in liquid nitrogen was taken out and placed in a water bath kettle at 37°C. After melting, it was immediately intraperitoneally inoculated into C57BL/6J mice (0.2 mL/mouse). When the infection rate of the breeding mice reached 15-30%, their eyeballs were removed and blood was collected in an anticoagulant tube. After shaking well, the blood was transmitted to offspring C57BL/6J mice with a 1 mL syringe at an injection dose of 0.2 mL/mouse. • 2. Plasmodium inoculation: C57BL/6J mice were weighed and fed adaptively. When the infection rate of offspring C57BL/6J mice reached 15-30%, the total number of red blood cells and the number of pRBCs were counted after their eyeballs were removed and blood was collected. The blood was injected intraperitoneally into model group C57BL/6J mice at an injection dose of 0.2 mL (including 1×10^7 pRBCs) per mouse, which was the 0th day (D0) of inoculation. • 3. Animal grouping: After inoculation, the experimental mice were randomly divided into 5 groups, including a model (M) group, high, medium and low dose Artesunazine groups (i.e., 40 mg/kg, 20 mg/kg, and 10 mg/kg Artesunazine), and an artesunate group (i.e., 15.6 mg/kg AS, clinically equivalent dose). The dosage of the medium dose Artesunazine group (20mg/kg Artesunazine) is equivalent to that of the artesunate group (15.6 mg/kg). There are 10 mice in each group, a total of 50 mice. • 4. Determination of survival rate From the 0th day of inoculation, the death of mice was observed every day for 28 consecutive days. Survival rate = (Number of surviving mice)/(Number of experimental mice) × 100% [formula] • 5. Determination of recurrence rate After inoculation, the mice were randomly divided into groups and administered via nasal drip for 3 h. After four consecutive days of administration, blood smear test began at D4. A small drop of blood was taken from the tail tip of a mouse and dropped onto a glass slide. The blood drop was pushed to one end at a certain angle with the edge of another glass slide to make a thin blood film with appropriate thickness. After the thin blood film was air-dried, it was fixed with methanol and placed until completely air-dried. After a Giemsa stain solution was diluted at a ratio of 1:9 for staining (completely covering the fixed thin blood film) for 20 min, the thin blood film was rinsed under a faucet, and the water on the surface of the film was quickly absorbed with filter paper. A drop of cedar oil was dropped onto a glass slide for examination under a 100x oil microscope to count the number of parasitized red blood cells contained in 1000 red blood cells. The mouse recurrence rate was calculated by the ratio of the number of mice with recurrence to the total number of mice. Recurrence rate = (Number of mice with recurrence)/(Number of experimental mice) × 100% [formula] • 6. RMCBS score determination A rapid mouse coma behavior scale (RMCBS) was used to evaluate the neurological function of experimental mice. […]

[4] = system: Plasmodium berghei ANKA strain; experiment: Survival rate of cerebral malaria model mice; type: in vivo, C57BL/6J mice; details: 15.6 mg/kg AS, nasal drip, four consecutive days; 28 days of observation
Excerpt: as §1

[5] = system: Plasmodium berghei ANKA strain; experiment: Rapid mouse coma behavior scale (RMCBS) score of cerebral malaria model mice; type: in vivo, C57BL/6J mice; details: AS group (15.6 mg/kg), at the end point of observation; total of 20 points
Excerpt: as §1

[6] = mixed solution with ligustrazine hydrochloride in 80% polyethylene glycol 400, dark environment at 40°C
Method: 160.2 mg of Artesunazine was weighed and put into a penicillin bottle, 8 mL of a 80% polyethylene glycol 400 solution was added, and the Artesunazine was completely dissolved by ultrasonic treatment, resulting in about 20.25 mg/mL Artesunazine solution. Subsequently, the penicillin bottle filled with the solution was sealed, covered with aluminum foil paper for light avoidance treatment, and placed in a stability test box at 40°C; and 0.5 mL to 25 mL of the solution was sampled into volumetric flasks on days 0, 3, 7, and 10, respectively. After diluting with methanol and shaking well, the content of the Artesunazine was determined by an ultra performance liquid chromatography (UPLC) method.
The UPLC determination conditions for the Artesunazine are as follows: Instrument: ultra performance liquid chromatography Waters ACQUITY UPLC, chromatographic column: ACQUITY UPLC HSS T3 Column (100 Å, 1.8 µm, 2.1 mm×100 mm), detection wavelength: 295 nm, mobile phase: acetonitrile-0.1% phosphoric acid water (35:65), flow rate: 0.3 ml/min, column temperature: 30°C, sample room temperature: 25°C, injection volume: 3 µL. […]

[7] = Plasmodium falciparum standard strain 3D7, cultured for 72 h, read-out: IC50

IC50 ([1]; Plasmodium falciparum, 3D7, standard antimalarial drug given for comparison, source of the value not stated, read-out: IC50): ~11.8 nM
SMILES: C[C@@H]1CC[C@H]2[C@@H](C)C(=O)O[C@@H]3O[C@@]4(C)CC[C@@H]1[C@]32OO4 [artemisinin, reference compound]

IC50 ([1]; Plasmodium falciparum, 3D7, standard antimalarial drugs given for comparison, source of the values not stated, read-out: IC50): ~3.96 nM
SMILES: OC(c1cc(C(F)(F)F)nc2c(C(F)(F)F)cccc12)C1CCCCN1 (stereo not shown) [mefloquine, reference compound]

Continued, compound first:

SMILES: Cc1nc(C)c(COC(=O)CC(=O)OC2OC3OC4(C)CCC5C(C)CCC(C2C)C35OO4)nc1C [Compound Ia-2, (3R, 5aS, 6R, 9R, 10R, 12R, 12aR)-3,6,9-trimethyldecahydro-12h-3, 12-epoxy [1, 2] dioxopyran [4,3-i] isobenzopyran-10-yl ((3,5,6-trimethylpyrazine-2-yl)methyl) malonate]
IC50 [1, 7]: 12.5 nM

SMILES: C[C@H]1[C@H](OC(=O)CCC(=O)O)O[C@@H]2O[C@@]3(C)CC[C@H]4[C@H](C)CC[C@@H]1[C@@]24OO3 [artesunate, dihydroartemisinin-12-α-succinate, reference compound]
body weight [2]: 15.41±0.50 | Recurrence rate (%) D4 ([3]; D4): 10% | Recurrence rate (%) D7 ([3]; D7): 90% | Recurrence rate (%) D28 ([3]; D28): 100% | survival rate [4]: 40% | RMCBS score [5]: 16.22±0.55 points | IC50 ([1]; Plasmodium falciparum, 3D7, 72 h): 8.82 nM | content of artesunate [6]: rapidly decreased

SMILES: Cc1nc(C)c(COCCOC2OC3OC4(C)CCC5C(C)CCC(C2C)C35OO4)nc1C [Compound Ia-8, 2,3,5-trimethyl-6-[(2-(((3R, 5aS, 6R, 9R, 12R, 12aR)-3,6,9-trimethylbicyclo [3.2.1]heptane-12H-3, 12-epoxide [1, 2]dioxacycloheptane [4,3-i]isochromene-10-yl)oxy)ethoxy)methyl] pyrazine]
IC50 [1, 7]: 107 nM

SMILES: CCN(CC)CCCC(C)Nc1ccnc2cc(Cl)ccc12 (stereo not shown) [chloroquine, reference compound]
IC50 ([1]; Plasmodium falciparum, 3D7): ~2.36 nM
